Consider three molecules from patent US9924716B2, “Molecules having pesticidal utility, and intermediates, compositions, and processes, related thereto” (Dow AgroSciences LLC, priority 2016, dated 2018).

What all share (format): in vivo
Test [1] deals with Beet Armyworm (Spodoptera exigua, LAPHEG) second instar larvae. Description: Bioassay on Beet Armyworm (BAW), 128-well diet tray assay. Conditions: Beet Armyworm, Table ABC Biological Results, read-out: BAW rating. The essentials: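 Second-instar larvae, one to five per well, on artificial diet surface-treated with 50 μg/cm^2 compound in acetone-water, dried; eight wells per compound. Held 25 °C, 14:10 light-dark, five to seven days; percent mortality averaged over wells.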

Test [2] relates to Cabbage Looper (Trichoplusia ni, TRIPNI) second instar larvae. The experiment in a line: Bioassay on Cabbage Looper (CL), 128-well diet tray assay. Conditions: Cabbage Looper, Table ABC Biological Results, read-out: CL rating. The essentials: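 Second instar larvae (1–5 per well) on artificial diet surface-treated with 50 μg/cm² compound in 90:10 acetone-water, eight wells per compound. Held 5–7 days at 25 °C, 14:10 light-dark; percent mortality averaged across wells.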

The test system of test [3] is Green Peach Aphid (Myzus persicae, MYZUPE). The experiment in a line: Bioassay on Green Peach Aphid (GPA), foliar spray on cabbage seedlings. Conditions: Table ABC Biological Results. The procedure: Certain molecules disclosed in this document were tested against GPA using procedures described in the following example. In the reporting of the results, the “GPA & YFM Rating Table” was used (See Table Section). Cabbage seedlings grown in 3-inch pots, with 2-3 small (3-5 cm) true leaves, were used as test substrate. The seedlings were infested with 20-50 GPA (wingless adult and nymph stages) one day prior to chemical application. Four pots with individual seedlings were used for each treatment. Test molecules (2 mg) were dissolved in 2 mL of acetone/methanol (1:1) solvent, forming stock solutions of 1000 ppm test molecule. The stock solutions were diluted 5× with 0.025% Tween 20 in water to obtain the solution at 200 ppm test molecule. A hand-held aspirator-type sprayer was used for spraying a solution to both sides of […] leaves until runoff. Reference plants (solvent check) were sprayed with the diluent only containing 20% by volume of acetone/methanol (1:1) solvent. Treated plants were held in a holding room for three days at approximately 25° C. and ambient relative humidity (RH) prior to grading. […] Percent Control was measured by using Abbott's correction formula (W. S. Abbott, “A Method of Computing the Effectiveness of an Insecticide” J. Econ. Entomol. 18 (1925), pp. 265-267) as follows. […]

Test [4] concerns Yellow Fever Mosquito (Aedes aegypti, AEDSAE) larvae. The experiment in a line: Bioassay on Yellow Fever Mosquito (YFM), 96-well plate larval assay. Conditions: Table ABC Biological Results. The procedure: Certain molecules disclosed in this document were tested against YFM using procedures described in the following paragraph. In the reporting of the results, the “GPA & YFM Rating Table” was used (See Table Section).
Master plates containing 400 μg of a molecule dissolved in 100 μL of dimethyl sulfoxide (DMSO) (equivalent to a 4000 ppm solution) are used. A master plate of assembled molecules contains 15 μL per well. To this plate, 135 μL of a 90:10 water:acetone mixture is added to each well. A robot (Biomek® NXP Laboratory Automation Workstation) is programmed to dispense 15 μL aspirations from the master plate into an empty 96-well shallow plate (“daughter” plate). There are 6 reps (“daughter” plates) created per master. The created daughter plates are then immediately infested with YFM larvae.
The day before plates are to be treated, mosquito eggs are placed in Millipore water containing liver powder to begin hatching (4 g. into 400 mL). After the daughter plates are created using the robot, they are infested with 220 μL of the liver powder/larval mosquito mixture (about 1 day-old larvae). After plates are infested with mosquito larvae, a non-evaporative lid is used to cover the plate to reduce drying. Plates are held at room temperature for 3 days prior to grading. After 3 days, each well is observed and scored based on mortality. The results are indicated in the table entitled “Table ABC: Biological Results” (See Table Section).

Consider `C[C@H](NC(=O)CC(F)(F)F)NC(=O)c1ccc(/C(F)=C/C(c2cc(Cl)c(Br)c(Cl)c2)C(F)(F)F)cc1C(F)(F)F` (stereo partly drawn) [F31, 4-((Z)-3-(4-Bromo-3,5-dichlorophenyl)-1,4,4,4-tetrafluorobut-1-en-1-yl)-2-(trifluoromethyl)-N—((R)-1-(3,3,3-trifluoropropanamido)ethyl)benzamide], for which the pest or weed control at 50 µg/cm2 in test [1] and in test [2] was 50 to 100% throughout. Moreover, in test [3], the GPA rating result was “B (More than 0-Less than 80)”. In addition, the YFM rating result in test [4] is recorded as “A (80-100)”.
In the case of `C=Cc1c(Cl)cc(C(/C=C(\F)c2ccc(C(=O)N[C@H](C)NC(=O)CC(F)(F)F)c(C(F)(F)F)c2)C(F)(F)F)cc1Cl` (stereo partly drawn) [F18, 4-((Z)-3-(3,5-Dichloro-4-vinylphenyl)-1,4,4,4-tetrafluorobut-en-1-yl)-2-(trifluoromethyl)-N—((R)-1-(3,3,3-trifluoropropanamido)ethyl)benzamide], the pest or weed control at 50 µg/cm2 in test [1] and in test [2] was 50 to 100% throughout. In test [4], the YFM rating entry was “A (80-100)”.
For `C[C@H](NC(=O)CCC(F)(F)F)NC(=O)c1ccc(/C(F)=C/C(c2cc(Cl)c(F)c(Cl)c2)C(F)(F)F)cc1C(F)(F)F` (stereo partly drawn) [F17, 4-((Z)-3-(3,5-Dichloro-4-fluorophenyl)-1,4,4,4-tetrafluorobut-1-en-1-yl)-N—((R)-1-(4,4,4-trifluorobutanamido)ethyl)-2-(trifluoromethyl)benzamide], the pest or weed control at 50 µg/cm2 in test [1] and in test [2] was 50 to 100% each time. Besides, the GPA rating result in test [3] is “B (More than 0-Less than 80)”. In addition, the YFM rating result in test [4] is listed as “A (80-100)”.
